Assay [1] addresses T1, EP2 (Homo sapiens (Human), UniProt P43116). The experiment in a line: Competition binding ([3H]PGE2), EP2. Particulars: HEK 293 cells stably expressing human EP2 receptors, [3H]PGE2 10 nM. Here is the method: Competition binding experiments were performed in a medium containing Hank's balanced salt solution, HEPES 20 mM, pH 7.3, membranes (˜60 μg protein) or 2×10^5 cells from HEK 293 cells stably expressing human EP2 receptors, [^3H]PGE2 (10 nM) and various concentrations of test compounds in a total volume of 300 μl. Reaction mixtures were incubated at 23° C. for 60 min, and were filtered over Whatman GF/B filters under vacuum. Filters were washed three times with 5 ml ice-cold buffer containing 50 mM Tris/HCl (pH 7.3). Non-specific binding was estimated in the presence of excess unlabeled PGE2 (10 μM). Binding data fitted to the binding model for a single class of binding sites, using nonlinear regression analysis. IC50 values thus obtained were converted to Ki using the equation of Ki=(IC50/(1+[L]/KD) where [L] represents PGE2 concentration (10 nM) and KD the dissociation constant for [^3H]PGE2 at human EP2 receptors (40 nM).

In assay [2] the target is T2, EP4 (Homo sapiens (Human), UniProt P35408). The experiment in a line: cAMP assay, EP4. The format is cell-based. Particulars: HEK-EBNA cells expressing EP4. Here is the method: A 384-well drug plate was prepared to contain 6 test compounds, PGE2 and cAMP in 16 serial dilutions in triplicate, using a Biomek station. HEK-EBNA cells expressing a target PG receptor subtype (EP2 or EP4) were suspended in a stimulation buffer (HBSS, 0.1% BSA, 0.5 mM IBMX and 5 mM HEPES, pH 7.4) in a density of 10^4 cells/5 microliters. The reaction was initiated by mixing 5 microliters drug dilutions with 5 microliters of HEK-EBNA cells in a well, carried out for 30 min at room temperature, and followed by the addition of 5 microliters anti-cAMP acceptor beads in the control buffer with Tween-20 (25 mM NaCl, 0.03% Tween-20, 5 mM HEPES, pH 7.4). After 30 min in the dark at room temperature, the mixtures were incubated with 15 microliters biotinylated-cAMP/streptavidin donor beads in Lysis/Detection buffer (0.1% BSA, 0.3% Tween-20 and 5 mM HEPES, pH 7.4) for 45 min at room temperature. Fluorescence changes were read using a Fusion-alpha microplate reader.
T2 sequence (P35408 whole entry): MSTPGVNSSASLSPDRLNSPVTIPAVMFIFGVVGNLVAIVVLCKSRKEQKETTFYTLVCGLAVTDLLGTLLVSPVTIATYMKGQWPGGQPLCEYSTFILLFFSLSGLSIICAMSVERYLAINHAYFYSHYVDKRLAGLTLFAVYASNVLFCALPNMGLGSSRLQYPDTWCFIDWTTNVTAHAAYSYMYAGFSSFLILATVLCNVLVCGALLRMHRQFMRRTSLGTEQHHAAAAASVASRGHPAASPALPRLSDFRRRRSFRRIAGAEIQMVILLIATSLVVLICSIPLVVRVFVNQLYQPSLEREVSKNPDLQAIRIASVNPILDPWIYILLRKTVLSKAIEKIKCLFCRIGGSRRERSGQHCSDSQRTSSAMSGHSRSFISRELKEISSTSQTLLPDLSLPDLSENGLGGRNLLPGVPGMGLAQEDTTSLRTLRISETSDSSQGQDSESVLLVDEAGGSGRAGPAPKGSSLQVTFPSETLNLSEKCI
Background: Cyclic AMP is a second messenger, typically raised through Gs and lowered through Gi signalling.

The target of assay [3] is T1, EP2. The experiment in a line: cAMP assay, EP2. The format is cell-based. Particulars: HEK-EBNA cells expressing EP2.
For assay [4], the target named is T2, EP4. The experiment in a line: Competition binding, EP4.
A further assay addresses hTP (Homo sapiens (Human), UniProt P21731). The experiment in a line: FLIPR calcium signal, hTP. The format is cell-based. As to conditions: HEK-293(EBNA) cells expressing hTP. The method, then:
(§1) HEK-293(EBNA) cells, stably expressing one type or subtype of recombinant human prostaglandin receptors (prostaglandin receptors expressed: hDP/Gqs5; hEP1; hEP2/Gqs5: hEP3A/Gqi5; hEP4/Gqs5; hFP; hIP; hTP), were cultured in 100 mm culture dishes in high-glucose DMEM medium containing 10% fetal bovine serum, 2 mM 1-glutamine, 250 μg/ml geneticin (G418) and 200 microgram/mL hygromycin B as selection markers, and 100 units/ml penicillin G, 100 microgram/mL streptomycin and 0.25 microgram/mL amphotericin B.
(§2) Cells were seeded at a density of 5×10^4 cells per well in Biocoat® Poly-D-lysine-coated black-wall, clear-bottom 96-well plates (Becton-Dickinson) and allowed to attach overnight in an incubator at 37° C. Cells were then washed two times with HBSS-HEPES buffer (Hanks Balanced Salt Solution without bicarbonate and phenol red, 20 mM HEPES, pH 7.4) using a Denley Cellwash plate washer (Labsystems). […]
(§3) Cells were excited with an Argon laser at 488 nm, and emission was measured through a 510-570 nm bandwidth emission filter (FLIPR™, Molecular Devices, Sunnyvale, Calif.). […] The peak increase in fluorescence intensity was recorded for each well. […] The peak fluorescence change in each drug-containing well was then expressed relative to the controls. […]

The target of a further assay is hDP (Homo sapiens (Human), UniProt Q13258). The experiment in a line: FLIPR calcium signal, hDP. The assay is classed as cell-based. As to conditions: HEK-293(EBNA) cells expressing hDP/Gqs5. Here is the method: as §1, §2, §3
hDP, sequence (Q13258 whole entry): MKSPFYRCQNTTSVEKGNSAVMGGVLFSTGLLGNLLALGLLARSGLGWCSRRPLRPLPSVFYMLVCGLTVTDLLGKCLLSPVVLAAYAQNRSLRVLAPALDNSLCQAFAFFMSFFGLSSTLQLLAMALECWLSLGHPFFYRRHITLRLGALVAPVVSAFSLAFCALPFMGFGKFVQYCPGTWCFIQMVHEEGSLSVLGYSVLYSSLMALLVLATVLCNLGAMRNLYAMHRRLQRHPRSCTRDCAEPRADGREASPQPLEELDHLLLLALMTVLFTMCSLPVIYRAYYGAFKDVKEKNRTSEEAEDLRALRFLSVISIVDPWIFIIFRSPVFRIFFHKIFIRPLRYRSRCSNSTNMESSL
A further assay deals with hEP3A (Homo sapiens (Human), UniProt P43115). The experiment in a line: FLIPR calcium signal, hEP3A. The assay is classed as cell-based. Particulars: HEK-293(EBNA) cells expressing hEP3A/Gqi5. The method, then: as §1, §2, §3
hEP3A, sequence (P43115 whole entry): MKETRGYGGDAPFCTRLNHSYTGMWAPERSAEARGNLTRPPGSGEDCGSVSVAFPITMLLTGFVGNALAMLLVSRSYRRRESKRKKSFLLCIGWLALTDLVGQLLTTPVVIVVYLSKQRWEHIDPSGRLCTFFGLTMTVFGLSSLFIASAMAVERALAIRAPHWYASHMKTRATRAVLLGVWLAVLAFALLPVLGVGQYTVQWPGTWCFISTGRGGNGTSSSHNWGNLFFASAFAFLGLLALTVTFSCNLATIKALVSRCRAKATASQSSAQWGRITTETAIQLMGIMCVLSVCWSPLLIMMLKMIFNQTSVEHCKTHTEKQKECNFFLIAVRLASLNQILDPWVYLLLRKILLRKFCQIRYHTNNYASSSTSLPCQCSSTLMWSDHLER
The next assay deals with hEP1 (Homo sapiens (Human), UniProt P34995). The experiment in a line: FLIPR calcium signal, hEP1. As to conditions: HEK-293(EBNA) cells expressing hEP1. The assay is classed as cell-based. Here is the method:
as §1, §2, §3

Another assay concerns the target hFP (Homo sapiens (Human), UniProt P43088). The experiment in a line: FLIPR calcium signal, hFP. The assay is classed as cell-based. As to conditions: HEK-293(EBNA) cells expressing hFP. The method, then:
as §1, §2, §3

This is an account of results in patent US9540357B1, “15-aryl prostaglandins as EP4 agonists, and methods of use thereof” (Allergan, Inc., priority 2014, dated 2017).

T1 sequence (P43116 whole entry): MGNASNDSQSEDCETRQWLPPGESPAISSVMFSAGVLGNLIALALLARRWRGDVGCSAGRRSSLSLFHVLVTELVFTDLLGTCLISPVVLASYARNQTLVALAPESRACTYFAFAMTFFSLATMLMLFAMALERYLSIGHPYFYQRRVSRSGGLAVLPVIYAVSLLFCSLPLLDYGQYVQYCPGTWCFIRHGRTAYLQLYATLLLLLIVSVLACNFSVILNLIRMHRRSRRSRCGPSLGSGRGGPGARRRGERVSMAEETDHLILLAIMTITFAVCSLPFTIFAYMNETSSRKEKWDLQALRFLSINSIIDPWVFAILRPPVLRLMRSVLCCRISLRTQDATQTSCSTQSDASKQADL
hEP1, sequence (P34995 whole entry): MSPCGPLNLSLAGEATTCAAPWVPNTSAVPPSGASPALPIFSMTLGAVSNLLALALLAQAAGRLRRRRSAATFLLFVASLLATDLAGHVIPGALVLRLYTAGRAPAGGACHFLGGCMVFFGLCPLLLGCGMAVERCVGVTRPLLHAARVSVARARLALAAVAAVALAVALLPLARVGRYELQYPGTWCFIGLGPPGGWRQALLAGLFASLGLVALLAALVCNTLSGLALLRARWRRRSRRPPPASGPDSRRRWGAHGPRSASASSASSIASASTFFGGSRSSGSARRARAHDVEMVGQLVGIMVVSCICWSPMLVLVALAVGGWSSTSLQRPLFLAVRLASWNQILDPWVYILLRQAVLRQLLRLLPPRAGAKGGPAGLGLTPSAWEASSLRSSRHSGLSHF
hFP, sequence (P43088 whole entry): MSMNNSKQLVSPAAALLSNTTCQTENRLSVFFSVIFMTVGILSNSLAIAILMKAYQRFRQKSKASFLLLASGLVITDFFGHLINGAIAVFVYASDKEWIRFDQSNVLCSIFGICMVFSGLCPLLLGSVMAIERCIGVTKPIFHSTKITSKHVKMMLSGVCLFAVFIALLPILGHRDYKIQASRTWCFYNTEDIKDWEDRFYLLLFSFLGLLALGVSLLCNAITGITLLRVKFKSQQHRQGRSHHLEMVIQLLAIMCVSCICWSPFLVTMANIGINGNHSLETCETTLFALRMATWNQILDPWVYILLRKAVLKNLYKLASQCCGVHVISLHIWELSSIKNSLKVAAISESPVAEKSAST
hTP, sequence (P21731 whole entry): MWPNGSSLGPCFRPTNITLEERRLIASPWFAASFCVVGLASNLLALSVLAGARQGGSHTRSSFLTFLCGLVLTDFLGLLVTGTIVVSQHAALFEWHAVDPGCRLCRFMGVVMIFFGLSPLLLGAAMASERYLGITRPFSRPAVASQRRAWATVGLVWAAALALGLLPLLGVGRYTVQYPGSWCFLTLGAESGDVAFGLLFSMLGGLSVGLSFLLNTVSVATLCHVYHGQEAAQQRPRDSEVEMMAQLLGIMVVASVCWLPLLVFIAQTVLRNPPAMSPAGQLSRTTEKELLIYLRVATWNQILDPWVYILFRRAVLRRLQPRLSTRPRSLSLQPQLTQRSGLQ

One may read the Ki as a measure of affinity in units of concentration, obtained from inhibition or displacement. A low value points to tighter binding. The EC50 is the midpoint of the concentration-response curve. Consider `O=C(O)c1ccc(CCCN2C(=O)CC[C@@H]2/C=C/C(O)c2cccc(Br)c2)cc1` (single isomer, unassigned) [Example 2], for which the Ki on EP2 [1] turned out to be 7490 nM; at EP4 [4] it was 1210 nM. Further, the EC50 is 194 nM at EP4 [2] and 149 nM on EP2 [3].
For `Cc1cc(O)ccc1-c1cccc(C(O)/C=C/[C@H]2CCC(=O)N2CCCc2ccc(C(=O)O)cc2)c1` (single isomer, unassigned) [Example 9], the “EC50 against hTP” value on hTP is “not active”. The “EC50 against hDP” value at hDP was “not active”. The “EC50 against hEP3A” value at hEP3A is recorded as “not active”. For the same molecule, the “EC50 against hEP1” value on hEP1 was “not active”. Further, the EP2 Ki on EP2 [1] was > 10000 nM. Besides, at EP4 [2], the EC50 came to 326 nM. For the same molecule, the “EC50 against hFP” value at hFP was “not active”. The Ki on EP4 [4] is 3320 nM.
With `Cc1cc(O)ccc1-c1cccc(C(O)/C=C/[C@H]2CCC(=O)N2CCCc2ccc(C(=O)O)cc2)c1` (single isomer, unassigned) [Example 10], the “EC50 against hTP” value on hTP was “not active”. In addition, the “EC50 against hDP” value on hDP is given as “not active”. The “EC50 against hEP3A” value on hEP3A is recorded as “not active”. Also, at hEP1, the “EC50 against hEP1” value is “not active”. Also, the EP2 Ki on EP2 [1] is > 10000 nM. This molecule also displayed an EC50 at EP4 [2] of 3 nM. Further, the “EC50 against hFP” value on hFP is “not active”. Besides, the affinity on EP4 [4], expressed as Ki, was 25 nM.
`CC(C)(C)c1cc(Cl)ccc1-c1cccc(C(O)/C=C/[C@H]2CCC(=O)N2CCCc2ccc(C(=O)O)cc2)c1` (stereo partly drawn) [Example 26, 4-(3-{2(R)-[(1E)-3-(2′-tert-butyl-4′-chlorobiphenyl-3-yl)-3-hydroxyprop-1-en-1-yl]-5-oxopyrrolidin-1-yl}propyl)benzoic acid]: the EP2 Ki at EP2 [1] is > 10000 nM. Further, at EP4 [2], the EP4 cAMP EC50 is > 10000 nM. The molecule further showed a Ki at EP4 [4] of 8850 nM.
On to `CC(C)(C)c1cc(Cl)ccc1-c1cccc(C(O)/C=C/[C@H]2CCC(=O)N2CCCc2ccc(C(=O)O)cc2)c1` (stereo partly drawn) [Example 27, 4-(3-{2(R)-[(1E)-3-(2′-tert-butyl-4′-chlorobiphenyl-3-yl)-3-hydroxyprop-1-en-1-yl]-5-oxopyrrolidin-1-yl}propyl)benzoic acid], for which, on EP2 [1], the EP2 Ki is > 10000 nM. At EP4 [2], this molecule had an EC50 of 107 nM. Further, the affinity at EP4 [4] corresponds to a Ki of 757 nM.
For `CCCCc1cc(Cl)ccc1-c1cccc(C(O)/C=C/[C@H]2CCC(=O)N2CCCc2ccc(C(=O)O)cc2)c1` (stereo partly drawn) [Example 29, 4-(3-{2(R)-[(1E)-3-(2′-butyl-4′-chlorobiphenyl-3-yl)-3-hydroxyprop-1-en-1-yl]-5-oxopyrrolidin-1-yl}propyl)benzoic acid], on EP2 [1], the EP2 Ki is > 10000 nM. Also, the EC50 at EP4 [2] stood at 117 nM. On EP4 [4], this molecule yielded a Ki of 319 nM.
Consider `CC(C)c1cc(O)ccc1-c1cccc(C(O)/C=C/[C@H]2CCC(=O)N2CCCc2ccc(C(=O)O)cc2)c1` (stereo partly drawn) [Example 30, 4-[3-(2(R)-{(1E)-3-hydroxy-3-[4′-hydroxy-2′-(propan-2-yl)biphenyl-3-yl]prop-1-en-1-yl}-5-oxopyrrolidin-1-yl)propyl]benzoic acid], for which, on EP2 [1], the EP2 Ki was > 10000 nM. Also, the EC50 at EP4 [2] was 134 nM. This molecule also came in with a Ki at EP4 [4] of 582 nM.
For `CC(C)c1cc(O)ccc1-c1cccc(C(O)/C=C/[C@H]2CCC(=O)N2CCCc2ccc(C(=O)O)cc2)c1` (stereo partly drawn) [Example 31, 4-[3-(2(R)-{(1E)-3-hydroxy-3-[4′-hydroxy-2′-(propan-2-yl)biphenyl-3-yl]prop-1-en-1-yl}-5-oxopyrrolidin-1-yl)propyl]benzoic acid] the same measures were > 10000 nM, 60 nM and 211 nM.
Consider `Cc1cc(Cl)ccc1-c1ccc(C(O)/C=C/[C@H]2CCC(=O)N2CCCc2ccc(C(=O)O)cc2)s1` (stereo partly drawn) [Example 33, 4-[3-(2(R)-{(1E)-3-[5-(4-chloro-2-methylphenyl)thiophen-2-yl]-3-hydroxyprop-1-en-1-yl}-5-oxopyrrolidin-1-yl)propyl]benzoic acid], for which the EP2 Ki on EP2 [1] was > 10000 nM. This molecule also returned an EC50 on EP4 [2] of 118 nM. Also, the affinity at EP4 [4], expressed as Ki, was 536 nM.
